Test results published in patent publication US11464770B2, “Anticancer pharmaceutical composition” (NATIONAL CANCER CENTER, priority 2016, dated 2022).
Read-outs that look alike come from different tables or passages of the source.

Columns and labels:
[1] = tested on: bladder cancer cell lines; experiment: Cell based assay, cell viability (CellTiter-Glo), bladder cancer cell lines; conditions: 72 hours treatment, 0 to 2 μM, CellTiter-Glo
In short: (§1)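 Each commercial line was plated and allowed 24 h to settle at constant temperature. Compound exposure ran 72 h at final concentrations spanning 0 to 2 μM. Cell viability was then determined by luminescent ATP detection.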

[2] = tested on: liver cancer cell lines; experiment: Cell based assay, cell viability (CellTiter-Glo), liver cancer cell lines; conditions: Homo sapiens, SK-HEP1; SK-HEP-1 cell line
In short: as §1

[3] = tested on: prostate cancer cell lines (e.g. DU145/TXR); experiment: Cell based assay, cell viability (CellTiter-Glo), prostate cancer cell lines; conditions: Homo sapiens, 72 hours treatment, final concentration 0 to 2 μM
In short: as §1

[4] = 5637 cells, read-out: IC50, bladder cancer cell line 5637
[5] = Homo sapiens, T-24, T24 cells, read-out: IC50, bladder cancer cell line T24
[6] = Homo sapiens, J82 cells, read-out: IC50, bladder cancer cell line J82
[7] = CWR22 cells, read-out: IC50, prostate cancer cell line CWR22
[8] = DU-145, DU145/TXR cells, read-out: IC50, prostate cancer cell line DU145/TXR
[9] = DU-145, DU145 cells, read-out: IC50, prostate cancer cell line DU145
[10] = LNcap cells, read-out: IC50, prostate cancer cell line LNcap
[11] = PC-3 cells, read-out: IC50, prostate cancer cell line PC-3

Structure (SMILES) | IC50 [1, 4] [nM] | IC50 [1, 5] [nM] | IC50 [1, 6] [nM] | IC50 ([1]; Homo sapiens, KU-19-19 cells, read-out: IC50, bladder cancer cell line KU-19-19) [nM] | IC50 [2] [nM] | IC50 [3, 7] [nM] | IC50 [3, 8] [nM] | IC50 [3, 9] [nM] | IC50 [3, 10] [nM] | IC50 [3, 11] [nM]
CC(=O)c1c([S+]([O-])Cc2ccc(SC(F)(F)F)cc2)[nH]c2c(Br)ccc(Cl)c2c1=O (stereo not shown) [Compound 56, 3-acetyl-8-bromo-5-chloro-2-((4-((trifluoromethyl)thio)benzyl)sulfinyl)quinolin-4(1H)-one] | > 2000 | 980 | 1460 | 900 | 1020 | 1550 | 860 | 1420 | 1820 | 1300
CC(=O)c1c([S+]([O-])Cc2ccc(OC(F)(F)F)cc2)[nH]c2c(Br)ccc(Cl)c2c1=O (stereo not shown) [Compound 71, 3-acetyl-8-bromo-5-chloro-2-((4-(trifluoromethoxy)benzyl)sulfinyl)quinolin-4(1H)-one] | 1510 | 1390 | 1980 |  | 1180 | > 2000 | 1230 | 1740 | > 2000 | 1700
CC(=O)c1c([S+]([O-])Cc2ccc(C(C)(C)C)cc2)[nH]c2c(Br)ccc(Cl)c2c1=O (stereo not shown) [Compound 60, 3-acetyl-8-bromo-2-((4-(tert-butyl)benzyl)sulfinyl)-5-chloroquinolin-4(1H)-one] | > 2000 | 1720 | > 2000 |  | > 2000 | > 2000 | 1260 | > 2000 | > 2000 | 1820
Cc1cc(C[S+]([O-])c2[nH]c3c(Br)ccc(Cl)c3c(=O)c2C(=O)C(C)C)no1 (stereo not shown) [Compound 95, 8-bromo-5-chloro-3-isobutyryl-2-(((5-methylisoxazol-3-yl)methyl)sulfinyl)quinolin-4(1H)-one] | 1230 | 980 | 1470 |  | 940 | 1080 | 940 | 840 | 1980 | 1700
